In patent publication US11382908B2, “Compositions and methods for treating inflammatory bowel disease” (The Broad Institute, Inc., priority 2017, dated 2022):

Columns and labels:
[1] = molecular target: T1, ubiquitinylation of CARD9 by TRIM62 (Homo sapiens, UniProt Q9H257); experiment: TRIM62-mediated ubiquitinylation assay with Western blot detection; format: biochemical
T1 construct: Full-length Flag-StrepII-CARD9 for AlphaLISA, DSF and NMR assays was expressed as previously described; StrepII (N); made in house; UBE1 and UBE2D2 purchased from LifeSensors, no catalogue numbers
T1 sequence (Q9H257 1-536): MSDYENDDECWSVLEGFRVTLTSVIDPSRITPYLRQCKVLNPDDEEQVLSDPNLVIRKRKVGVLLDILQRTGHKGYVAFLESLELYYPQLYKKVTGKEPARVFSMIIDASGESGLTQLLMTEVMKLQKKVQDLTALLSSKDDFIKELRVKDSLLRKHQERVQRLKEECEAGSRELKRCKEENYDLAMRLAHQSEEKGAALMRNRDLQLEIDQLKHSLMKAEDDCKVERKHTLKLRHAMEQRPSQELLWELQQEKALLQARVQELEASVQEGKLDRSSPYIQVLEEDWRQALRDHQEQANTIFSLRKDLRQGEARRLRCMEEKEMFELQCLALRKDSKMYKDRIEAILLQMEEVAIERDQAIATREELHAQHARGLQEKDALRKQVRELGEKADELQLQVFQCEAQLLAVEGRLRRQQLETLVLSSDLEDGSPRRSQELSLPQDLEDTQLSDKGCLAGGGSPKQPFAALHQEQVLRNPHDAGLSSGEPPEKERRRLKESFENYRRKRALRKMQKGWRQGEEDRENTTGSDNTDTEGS
Experimental: For western blot detection, ubiquitinylation reactions contained 250 nM Flag-Strep-CARD9, 5 nM TRIM62, 5 μM of HA-tagged ubiquitin (Boston Biochem), 25 nM UBE1 (LifeSensors), 300 nM UBE2D2 (LifeSensors), 50 mM Tris pH=7.5, 5 mM MgCl2, 2.5 mM ATP, 1 mM DTT in a final volume of 20 μl. Reactions were quenched by the addition of the LDS sample buffer with 50 mM DTT. HA antibody F-7 (Santa Cruz) was used for the detection of polyubiquitin chains, and Flag M2 antibody from Sigma was used to detect Flag-StrepII-CARD9 as a loading control.

[2] = Truhit alphaLISA assay for non-specific alphaLISA inhibitors; conditions: percent AlphaLISA signal, 100% = DMSO control
From the text: Data are expressed as mean of percent AlphaLISA signal (100%=mean AlphaLISA signal with DMSO control)+/−s.d. […] The alphaLISA findings were further corroborated by TRIM62-mediated ubiquitinylation assay coupled with Western blot detection (FIG. 2E).

[3] = test system: NF-κB activation in THP-1 cells; experiment: NF-κB luciferase reporter assay in THP-1 cells reconstituted with Dectin-1; format: cell-based; conditions: for WGP Dectin-1-mediated signaling to NF-κB, luciferase activity: WGP 50 μg/mL, 200 μM compound, 4-h time point
Experimental: (§1) THP-1 and HEK293T cells were from ATCC and cultured according to ATCC instructions. Cell cultures were regularly checked for mycoplasma contamination using a mycoplasma PCR test. BMDCs were isolated from femur and tibia of C57B/6 mice by harvesting bone marrows followed by hypotonic red blood cell lysis. Obtained bone marrow cells were cultured in DMEM (10% FBS, 1% penicillin/streptomycin, 1% glutamin) with 25 ng/ml GM-CSF.
CARD9 KO THP-1 cells were generated by a CRIPSR-based approach as previously described (Cao et al.). For the NF-κB luciferase assay, CARD9 KO or WT THP-1 cells lines were transduced with Dectin-1 (NM 022570) and a lentivirus-based NF-κB luciferase reporter, containing NF-κB responsive element upstream of minimal promoter and Luc2P54. CARD9 KO cells overexpressing Dectin-1 and the NF-κB luciferase reporter were rescued with indicated CARD9 constructs. For compound treatment, Compound 9 was pre-incubated with Dectin-1, NF-κB reporter expressing THP-1 cells for 2 hours, followed by stimulation with scleroglucan (50 μg/ml), whole glucan particles (WGP dispersible, Invivogen, 50 μg/ml), or LPS (100 ng/ml). Reporter luciferase activity was measured using Steadylite Plus reagent (PerkinElmer).

[4] = molecular target: T1, ubiquitinylation of CARD9 by TRIM62; experiment: AlphaLISA ubiquitinylation assay; format: biochemical; conditions: reconstituted E1-E2-E3 TRIM62 complex
Experimental: FlagStrep-CARD9 and TRIM62 were expressed and purified as previously described (Cao et al.). Assay-ready plates containing 80 nl of 10 mM compound in DMSO were used. Ubiquitinylation reactions contained 12.5 nM Flag-Strep-CARD9, 1.25 nM TRIM62, 500 nM ubiquitin, 10 nM UBE1 (LifeSensors), 200 nM UBE2D2 (LifeSensors), 50 mM Tris pH=7.5, 5 mM MgCl2, 2.5 mM ATP, 1 mM DTT, 0.005% Tween-20 in a final volume of 10 μl. To assemble reactions, all reaction components except ubiquitin and Trim62 were combined and dispensed at a 2× concentration in a volume of 5 μl using a Multi-Drop Combi Reagent Dispenser. Reactions were initiated by added ubiquitin and TRIM62 at a 2× concentration in a volume of 5 μL in the same manner. The reactions were incubated at ambient temperature for 90 min then stopped by the addition of 10 μl of 2× quench/detect solution using a 16-ViaFlow dispenser. The 2× quench/detect solution contained 100 mM HEPES pH=7.5, 300 mM NaCl, 0.01% Tween 20, 30 mM ETDA, 40 μg/ml Streptavidin-Donor beads, 10 μg/ml α-Flag-Acceptor beads (both from PerkinElmer) and 100 nM biotin-TUBE1 (LifeSensors). Plates were incubated at RT for an additional 1 h then read on a PerkinElmer Envision.

[5] = molecular target: T2, CARD9-TRIM62 protein-protein interaction (Homo sapiens, UniProt Q9H257); experiment: Luminex bead-based ELISA CARD9-TRIM62 protein-protein interaction assay; format: binding
T2 construct: expressed in transfected cells; host or cells: HEK293F (Life Technologies, R790-07), separate transient transfections, cleared lysates
T2 sequence (Q9H257 1-536): T1 sequence (Q9H257 1-536)
Experimental: Flag-StrepII-CARD9 and TRIM62 were purified as described (Cao et al). TRIM62ΔRING and B30.2/SPRY were expressed in Sf9 cells in pFastBac as His8 fusion. For Luminex assay, HEK293F cells were transfected with 3XMyc-TRIM62 in pCMV and separately with Flag-CARD9 in pcDNA4/TO. Anti-Myc tag antibody (9E10) was conjugated to the beads and used for TRIM62 affinity capture from cleared lysates. Following the incubation with compounds, Flag-CARD9 lysate was added; after a series of washes and secondary PE-conjugated antibody incubation, readout was performed on MagPlex instruments.
HEK293F (Life Technologies, R790-07) cells were grown in Freestyle media (Cat. #12338) according to manufacturer's instructions. Cells were transiently transfected with 3XMyc-TRIM62 in pCMV and separately with Flag-CARD9 in pcDNA4/TO. Anti-Myc tag antibody (9E10, Sigma) was conjugated to the Luminex beads (10 spectral range beads in 10 separate reactions) using Pierce reagents/Luminex coupling kit. Flag-CARD9 and Myc-TRIM62 transfected cells were separately lysed in the lysis buffer (50 mM Tris pH 7.4, 150 mM NaCl, 0.5% NP40, protease inhibitors (Complete, Roche, 11873580001), phosphatase inhibitors (PhosStop, Roche, 4906845001)) and cleared by centrifugation at 10,000 g. Cleared TRIM62 lysates were added to the beads for Myc-mediated capture, incubated at room temperature for 1 hr, then washed lx and reconstituted in 1% BSA in PBS.
Screening compounds were pre-dispensed into assay-ready plates (twintecc, Eppendorf; 50 nl of 10 mM compound stock in DMSO per well). Cleared CARD9 lysate (20 μl per well) was added to the assay-ready plate and pre-incubated with the screening compounds for 30 min before addition of TRIM62-bound beads (300 beads per well, in 5 μl of 1% BSA in PBS). Plates were mixed on Bioshake IQ at 2400 rpm for 2 min and incubated for 40 min at room temperature. Plates were then washed on Biomek NX^P instrument with magnetic plate holders 1× with 1% BSA in PBS. Each 10 plates with non-identical spectral regions of beads were combined into one deep-well plate, and incubated with Flag-PE antibody conjugate (Abcam, ab72469) at the final dilution 1:400 for 1 hr. After 1× wash with 1% BSA in PBS, the readout was performed on Luminex MagPlex instruments with standard operating protocol. Bead quantity per well was employed as quality control measure, wells with bead count less than 20 were rejected from the analysis.

[6] = test system: phosphorylation of IKK in primary bone marrow-derived dendritic cells; experiment: Phospho-IKK FACS in bone marrow-derived dendritic cells; format: cell-based, C57B/6 mice; conditions: 200 μM compound; stimuli scleroglucan (Dectin-1) or LPS (TLR4 control)
Experimental: as §1
For phospho-IKK FACS analysis, the BMDCs were plated on day 7 in U bottom 96-well plates at 150,000 cells/well in DMEM, 10% FBS, 1% penicillin/streptomycin, glutamine and GM-CSF the day before the assay. Growth media was replaced with reduced serum media (2% FBS), at this time compound 9 was added to the appropriate wells (at 200 μM) and cells were incubated for 2 hours. Cells were stimulated with 50 μg/ml scleroglucan (Invivogen) or 100 ng/ml LPS (Sigma) for the indicated times at 37° C. At the end of the incubation, media was aspirated and cells were fixed in 4% PFA for 10 min at 37° C.; then resuspended in blocking buffer (3% BSA in permeabilization buffer, eBioscience). […] FACS analysis was run on Cytoflex instrument (Beckman Coulter) and analyzed using FlowJo software by sequentially gating on live/single cells/MHCII high cell population.

Row | Molecule | inhibition of in vitro CARD9 ubiquitinylation (Western blot) [1] | non-specific alphaLISA inhibition (Truhit) [2] | WGP Dectin-1-mediated signaling to NF-κB, luciferase activity [3] | inhibition of polyubiquitinylation of CARD9 by TRIM62 (AlphaLISA) [4] | inhibition of CARD9-TRIM62 protein-protein interaction (Luminex) [5] | phosphorylation of IKK (CARD9 signaling) [6] | NF-κB activation, luciferase reporter ([3]; scleroglucan or LPS stimuli, 2 hr and 4 hr) | activation of Dectin-1-mediated signaling, NF-κB-driven luciferase reporter ([3]; 50 μg/mL WGP or scleroglucan)
1 | NC(=O)C1(N2CCCCC2)CCN(c2ncc(NC(=O)c3ccccc3)cc2C(=O)O)CC1 [compound 6] | inhibition of in vitro CARD9 ubiquitinylation reaction | Nonspecific inhibition was not observed | inhibited | inhibit the functional ubiquitinylation of CARD9 by TRIM62 | dose-dependent inhibitors |  |  | 
2 | NC(=O)C1(N2CCCCC2)CCN(c2ncc(NC(=O)c3cccc(Cl)c3)cc2C(=O)O)CC1 [compound 7] | inhibition of in vitro CARD9 ubiquitinylation reaction | Nonspecific inhibition was not observed |  | inhibit the functional ubiquitinylation of CARD9 by TRIM62 | dose-dependent inhibitors |  |  | 
3 | Cc1ccc(C(=O)Nc2cnc(N3CCC(C(N)=O)(N4CCCCC4)CC3)c(C(=O)O)c2)cc1 [compound 9] | inhibition of in vitro CARD9 ubiquitinylation reaction | Nonspecific inhibition was not observed | inhibited | inhibit the functional ubiquitinylation of CARD9 by TRIM62 | dose-dependent inhibitors | attenuates CARD9 signaling in stimulus-dependent manner | attenuates CARD9 signaling in stimulus-dependent manner | 
4 | NC(=O)C1(N2CCCCC2)CCN(c2ccc(NC(=O)c3ccccc3F)cc2C(=O)O)CC1 [compound 11] |  |  |  | potent inhibitor | potent inhibitor |  |  | 
5 | NC(=O)C1(N2CCCCC2)CCN(c2ncc(NC(=O)c3ccc(Cl)cc3)cc2C(=O)O)CC1 [compound 27] | inhibition of in vitro CARD9 ubiquitinylation reaction | Nonspecific inhibition was not observed |  | inhibit the functional ubiquitinylation of CARD9 by TRIM62 | dose-dependent inhibitors |  |  | 
6 | scleroglucan [reference compound] |  |  |  |  |  |  |  | more potent ligand than WGP
